{
  "source": "patent US20190350889A1",
  "about": "“Compositions And Methods Of Use Of Phorbol Esters In The Treatment Of Parkinson's Disease” (priority 2016, published 2019)",
  "key": {"[1]": {"system": "HIV", "details": "MT-4 cells; Mekkawy et al. 2000; cited from earlier work"}, "[2]": {"assay": "Dose ranging study: toxicity and side effects of different TPA doses administered clinically by i.v. infusion", "assay_type": "in vivo, human", "protocol": "TPA solution in a sterile syringe was injected into 200 ml of sterile saline and mixed well for i.v. infusion.\nOne mg TPA in solution was mixed well with 200 ml of sterile saline for intravenous infusion which was completed in 1 h at the rate of 16 μg/min. […] The above symptoms could be alleviated by giving the patients glucocorticoids. […] However, these side effects were short lived and reversible.\n0.5 mg of TPA in solution was mixed well with 200 ml of saline for intravenous infusion which was completed in 1 h at the rate of 8 μg/min. […] Difficulty in breathing was not observed. The cardiac, hepatic, renal and pulmonary functions were all normal.\n0.25 mg of TPA in solution was mixed well with 200 ml of saline for intravenous infusion which was completed in 1 h at the rate of 4 μg/min. […] The cardiac, hepatic, renal and pulmonary functions were all normal."}, "[3]": {"details": "patients with bone marrow function depressed by chemotherapy; Han et al. 1998; cited from earlier work"}, "[4]": {"details": "polar organic solvents and water; cited from earlier work"}, "[5]": {"details": "0.25 mg/patient x 4/week, i.v. infusion"}, "[6]": {"details": "0.5 mg/patient x 2/week, i.v. infusion"}, "[7]": {"details": "1 mg/patient/week, i.v. infusion"}, "[8]": {"details": "1 mg/patient/week, i.v. infusion in 1 h at 16 μg/min"}},
  "data": [
    {"compound": "CCCCCCCCCCCCCC(=O)O[C@@H]1[C@@H](C)[C@@]2(O)[C@@H](C=C(CO)C[C@]3(O)C(=O)C(C)=C[C@@H]23)[C@@H]2C(C)(C)[C@]12OC(C)=O", "note": "(stereo in doubt) [TPA, 12-O-tetradecanoylphorbol-13-acetate]", "values": [
      {"measurement": "HIV-cytopathic effects", "setting": "[1]", "result": "inhibit the HIV-cytopathic effects on MT-4 cells"},
      {"measurement": "Hb in the urine", "setting": "[2]; [5]", "result": "No Hb was detected in the urine"},
      {"measurement": "cardiac, hepatic, renal and pulmonary functions", "setting": "[2]; [5]", "result": "all normal"},
      {"measurement": "difficulty in breathing", "setting": "[2]; [5]", "result": "no patient suffered difficulty in breathing"},
      {"measurement": "symptoms such as chills and fever", "setting": "[2]; 0.25 mg/patient x 4/week, i.v. infusion in 1 h at 4 μg/min", "result": "also observed, but to a much lesser extent than with the higher dosages"},
      {"measurement": "Hb in the urine", "setting": "[2]; [6]", "result": "Occasionally, Hb was detected in patients' urine"},
      {"measurement": "cardiac, hepatic, renal and pulmonary functions", "setting": "[2]; [6]", "result": "all normal"},
      {"measurement": "difficulty in breathing", "setting": "[2]; [6]", "result": "not observed"},
      {"measurement": "tolerability", "setting": "[2]; [6]", "result": "tolerated the lower dose more easily"},
      {"measurement": "Hb in the urine", "setting": "[2]; [7]", "result": "Hb was detected in the urine"},
      {"measurement": "bleeding", "setting": "[2]; [7]", "result": "caused a minority of patients to bleed"},
      {"measurement": "cardiac, hepatic, renal and pulmonary functions", "setting": "[2]; [7]", "result": "all found to be normal"},
      {"measurement": "difficulty in breathing", "setting": "[2]; [7]", "result": "several patients suffered for a short period of time difficulty in breathing"},
      {"measurement": "duration of chills", "setting": "[2]; [8]", "result": "about 30 min"},
      {"measurement": "duration of fever", "setting": "[2]; [8]", "result": "3 to 5", "unit": "h"},
      {"measurement": "fever: patients' temperature reached", "setting": "[2]; [8]", "result": "37.5-39.5 °C"},
      {"measurement": "onset of chills after TPA administration", "setting": "[2]; [8]", "result": "One hour after TPA administration"},
      {"measurement": "local irritation", "setting": "[2]; TPA application (reason for giving it by i.v. infusion)", "result": "strong local irritation"},
      {"measurement": "circulating white blood cells and neutrophils", "setting": "[3]", "result": "cause an increase in circulating white blood cells and neutrophils"}
    ]},
    {"compound": "CC1=C[C@H]2[C@@]3(O)[C@H](C)[C@@H](O)[C@]4(O)[C@H]([C@@H]3C=C(CO)C[C@]2(O)C1=O)C4(C)C", "note": "[Phorbol]", "values": [
      {"measurement": "solubility", "setting": "[4]", "result": "well soluble in most polar organic solvents and in water"}
    ]}
  ]
}
